Tests used:
MDA-MB231 = assay: Cell viability (MTT) assay, 24-h IC50, MDA-MB231; type: cell-based, human; settings: Homo sapiens, MDA-MB-231, 24 h, read-out: 24-h IC50
HT29 = assay: Cell viability (MTT) assay, 24-h IC50, HT29; type: cell-based, human; settings: Homo sapiens, HT-29, 24 h, read-out: 24-h IC50
[1] = test system: MDA-MB 231 human breast cancer cells; assay: Annexin V and propidium iodide staining in MDA-MB231; type: cell-based; settings: MDA-MB231, compound at its IC50, 24 h
Experimental: Annexin V and propidium iodide (PI) staining: Cells were seeded at a density of 1×10^5 cells/well and treated for 24 h with various concentrations of each compound or equivalent volumes of DMSO. Briefly, after incubation with the test compounds, cells were trypsinized and stained with Annexin V-FITC (Invitrogen) and PI (0.5 μg/ml). Following incubation at room temperature for 15 min in the dark, annexin V-FITC and PI fluorescence intensities were analyzed by FACScaliber (BD Bioscience). Annexin V (+)/PI (−) cells are in early apoptosis, annexin V (+)/PI (+) cells are in late apoptosis (secondary necrosis), and annexin V (−)/ PI (+) cells are necrotic cells.
As summarized in Table 2 below, in MDA-MB231 cells, all six compounds, each used at its IC50 concentration, a) inhibited cell proliferation between 6% and 50% compared to controls; b) induced both early and late apoptosis, as well as necrosis; and c) inhibited the G1 to S cell cycle phase transition. In this Table, the values for proliferation are the percentage of the corresponding control values. Those for apoptosis and necrosis refer to the percentage of cells in each category with respect to the entire cell population, and are to be compared to the control (vehicle only-treated) cells (uppermost row).

HT-29 = assay: DFMO / phospho-sulindac I synergy, cell growth at 48 h, HT-29; type: cell-based, human; settings: HT-29, 48 h; DFMO 5 mM, phospho-sulindac I 40 μM
Experimental: (§1) A—Left panel: Cell viability was determined in HT-29 (full bars) and SW-480 (empty bars) cells after 48 h of incubation with 5 mM DFMO, 40 μM phospho-sulindac (P-S) or simultaneous combination of DFMO and P-S. Data are expressed as percentage of control cells (cells incubated only with DMSO). […] Right panel: In this isobologram the additivity line connects the IC50 value of each compound used alone. A and B represent two different dose pairs of each compound (their respective concentrations are shown in parentheses). The location of both A and B below the additivity line signifies synergy. […] DNA content was determined from propidium iodide (PI) fluorescence. C—Apoptosis and necrosis were determined by combined staining with annexin V and PI and determining fluorescence intensity. The percentages of apoptotic cells were determined using the dual staining with annexin V and propidium iodide and are indicated in each quadrant: left bottom quadrant, viable cells (annexin V-negative/PI-negative); right bottom quadrant, early apoptotic cells (annexin V-positive/PI-negative); right upper quadrant, late apoptotic cells (annexin V-positive/PI-positive); left upper quadrant, necrotic cells (annexin V-negative, PI-positive). […]

colon cancer cells = assay: Apoptosis (annexin V/PI), DFMO and phospho-sulindac I, 48 h; type: cell-based, human; settings: 48 h of incubation; concentrations below IC50s
Experimental: as §1

SW480 cells = assay: Polyamine levels in SW480 cells; type: cell-based, human
From the text: Further evidence of the synergy between the two compounds was provided by their effect on polyamine levels. Conventional sulindac is known to reduce polyamine levels in colon cancer cells (Yerushalmi et al. Role of polyamines in arginine-dependent colon carcinogenesis in Apc(Min) (/+) mice. Mol Carcinog 2006; 45(10):764-73.; Choi et al. Combination of 5-fluorouracil and N1,N11-diethylnorspermine markedly activates spermidine/spermine N1-acetyltransferase expression, depletes polyamines, and synergistically induces apoptosis in colon carcinoma cells. J Biol Chem 2005; 280(5):3295-304; and Basuroy and Gerner. Emerging concepts in targeting the polyamine metabolic pathway in epithelial cancer chemoprevention and chemotherapy. J Biochem (Tokyo) 2006; 139(1):27-33).

Salmonella typhimurium = assay: Ames mutagenicity assay (reverse mutations); type: cell-based; settings: two strains, presence and absence of S9 activation
Experimental: We assessed the safety of phospho-sulindac I by examining its genotoxicity by the Ames test and its gastrointestinal and other toxicity by performing a toxicological study in mice.
The mutagenic potential of phospho-sulindac I was evaluated by measuring its ability to induce reverse mutations at selected loci of two strains of Salmonella typhimurium in the presence and absence of S9 activation.

BxPC-3 = assay: Cell viability (MTT) assay, 24-h IC50, BxPC-3; settings: Homo sapiens, BXPC-3, 24 h, read-out: 24-h IC50
Experimental: Cells were incubated at 37° C. in 5% CO2. Cells were seeded at 5.5×10^4 cells/cm^2, allowed to attach overnight, and the following morning cells were treated with each of the test compounds.
Cell viability assay: We used an assay based on the reduction of 3-(4,5-dimethylthiazol-2-yl)-2,5-diphenyltetrazolium bromide dye (MTT), which was determined according to the manufacture's protocol (Promega, Madison, Wis., USA).

Q: Which IC50 (MDA-MB231) does the source give for CCOP(=O)(OCC)OCCCCOC(=O)CC1=C(C)/C(=C/c2ccc([S+](C)[O-])cc2)c2ccc(F)cc21 (stereo not drawn) [Phospho-sulindac I] here?
A: Its IC50 is 17 µM.

Q: And the IC50 (HT29)?
A: The IC50 was 65 µM.

Q: And the “Necrosis (%)” value ([1]; % of entire cell population (control 0.6))?
A: The value was 1.1%.

Q: And the “Early apoptosis (%)” value ([1]; % of entire cell population (control 1.4))?
A: The value was 1.7%.

Q: What about the “Late apoptosis (%)” value ([1]; % of entire cell population (control 2.0)) of the same molecule?
A: Its value is 4.7%.

Q: What about the “reduction in cell number” value (HT-29) of the same molecule?
A: The value was 41%.

Q: And the “percentage of apoptotic cells” value (colon cancer cells)?
A: The value was 16.5%.

Q: What about the level of putrescine (SW480 cells) of the same molecule?
A: The level of putrescine was 91 % of control values.

Q: And the level of spermidine (SW480 cells)?
A: The level of spermidine was 34 % of control values.

Q: And the level of spermine (SW480 cells)?
A: The level of spermine was 9 % of control values.

Q: And the “genotoxicity (mutagenic potential)” value (Salmonella typhimurium)?
A: The value was “negative for genotoxicity”.

Q: And the IC50 (BxPC-3)?
A: Its IC50 is 62 µM.
